Source: patent publication US6525000B1, “Method for producing anellated triazoles and new anellated triazoles and their use” (BASF Aktiengesellschaft, priority 1998, dated 2003)

Legend:
Assay in all cases: greenhouse post-emergence herbicidal test
Type in all cases: in vivo
[1] = test system: Galium aparine; settings: GALAP, 100 = complete destruction, 0 = no damage
Text: (§1) The seeds of the test plants were sown separately for each species. For the post-emergence treatment, the test plants were first grown to a plant height of from 3 to 15 cm, depending on plant habit, and only then treated with the active ingredients which had been suspended or emulsified in water. For this purpose, the test plants were either sown directly and grown in the same containers, or they were first grown separately as seedlings and transplanted into the test containers a few days prior to treatment. The rate of application for the post-emergence treatment was 0.0313 or 0.0156 kg of a.s./ha. Dependingon the species, the plants were kept at from 10-25° C. or 20-35° C. The test period extended over 2 to 4 weeks. During this time, the plants were tended, and their response to the individual treatments was evaluated. Evaluation was carried out using a scale from 0 to 100. 100 means no emergence of the plants, or complete destruction of at least the ariel plants, and 0 means no damage or normal course of growth. The plants used in the experiments belonged to the following species: [table]

[2] = test system: Abutilon theoprasti; settings: ABUTH, 100 = complete destruction, 0 = no damage
Text: as §1

[3] = test system: Polygonum persicaria; settings: POLPE, 100 = complete destruction, 0 = no damage
Text: as §1

[4] = test system: Solanum nigrum; settings: SOLNI, 100 = complete destruction, 0 = no damage
Text: as §1

[5] = test system: Veronica spp.; settings: VERSS, 100 = complete destruction, 0 = no damage
Text: as §1

[6] = test system: Chenopodium album; settings: CHEAL, 100 = complete destruction, 0 = no damage
Text: as §1

SMILES: CON=Cc1cc(N2C(=O)C3COCNN3C2=O)c(F)cc1Cl (stereo not drawn) [Ex. 1d, 8-(4′-chloro-2′-fluoro-5′-methoxyiminomethylphenyl)-4-oxa-7,9-dioxo-1,2,8-triaza[4.3.0.]nonane]
- herbicidal activity, evaluation on a scale from 0 to 100 ([1]; 0.0156 kg of a.s./ha): 98
- herbicidal activity, evaluation on a scale from 0 to 100 ([1]; 0.0313 kg of a.s./ha): 98
- herbicidal activity, evaluation on a scale from 0 to 100 ([2]; 0.0156 kg of a.s./ha): 100
- herbicidal activity, evaluation on a scale from 0 to 100 ([2]; 0.0313 kg of a.s./ha): 100
- herbicidal activity, evaluation on a scale from 0 to 100 ([3]; 0.0156 kg of a.s./ha): 98
- herbicidal activity, evaluation on a scale from 0 to 100 ([3]; 0.0313 kg of a.s./ha): 98
- herbicidal activity, evaluation on a scale from 0 to 100 ([4]; 0.0156 kg of a.s./ha): 100
- herbicidal activity, evaluation on a scale from 0 to 100 ([4]; 0.0313 kg of a.s./ha): 100
- herbicidal activity, evaluation on a scale from 0 to 100 ([5]; 0.0156 kg of a.s./ha): 100
- herbicidal activity, evaluation on a scale from 0 to 100 ([5]; 0.0313 kg of a.s./ha): 100
- herbicidal activity, evaluation on a scale from 0 to 100 ([6]; 0.0156 kg of a.s./ha): 98
- herbicidal activity, evaluation on a scale from 0 to 100 ([6]; 0.0313 kg of a.s./ha): 98
